Data published in patent US7307083B2, “Tetrahydro-acridine and dithiolane derivatives” (priority 2005, dated 2007).
Entries after “also recorded” stand apart in the source; their conditions may differ. Where two headings read alike, the source gives them in different places. Marks after values point to notes of the source that are not given here. Square brackets hold non-standard residues; d marks the D form. Peptide text beside a SMILES is read from it. Sta = CC(C)C[C@H](N)[C@@H](O)CC(=O)O

Experiments:
BACE1 (β-secretase) = molecular target: T1, BACE1 (β-secretase) (Homo sapiens, UniProt P56817); experiment: biochemical
T1 construct: host or cells: Baculovirus expression system
Method: Assay for the analysis of BACE activity
BACE1 (β-secretase) purified and expressed in Baculovirus in 50 mM Tris HCl (pH=7.5), 10% glycerol (5 Units)
Assay buffer: 50 mM Sodium Acetate, pH=4.5
20 μL of substrate were added to 20 μL of the compound to be tested (or to the buffer if preparing the control well)
To start the reaction, 20 μL of BACE1 enzyme were added to the well.
The mixture was incubated at 37° C. for 60 minutes.
20 μL of the solution were added to stop the reaction. Then the fluorescence signal was read.
BACE activity was measured with a fluorimetric analysis method using a multi-well spectrofluorimeter. The peptide substrate of the analysis mimes the APP protein which is the natural substrate of BACE.
The inhibition curves were obtained for each compound by plotting on a graph the inhibition percentages obtained with respect to the logarithm of the inhibitor concentration. The linear regression parameters were determined and, when possible, the value of IC50 was extrapolated (GraphPad Prism 3.0 GraphPad Software Inc.).
The value of IC50 was calculated using GraphPad Prism software.

[1] = molecular target: human recombinant acetylcholinesterase (AChE or HuAChE) (Homo sapiens, UniProt P22303); experiment: biochemical; assay type: biochemical
[2] = molecular target: butyrylcholinesterase (BChE) from human serum (Homo sapiens, UniProt P06276); experiment: biochemical; assay type: biochemical
human recombinant AChE = human recombinant AChE (Homo sapiens, UniProt P22303); experiment: Action mechanism and inhibition constant Ki (Lineweaver-Burk method); assay type: biochemical
Text: Determination of the action mechanism and of the inhibition constant (Ki). […] To obtain an estimate of the competitive inhibition constant Ki, the Lineweaver-Burk method was used. […] The data obtained were plotted on a graph according to the Lineweaver-Burk method, that is indicating the reciprocal of the enzymatic velocity (1/v) as a function of the reciprocal of the substrate concentration (1/[ACTh)].

SH-SY5Y cells [3] = experiment: Toxic effects, colorimetric MTT assay; assay type: cell-based; conditions: 24 hours; for effect on cellular viability (MTT): 0.1-50 μM
Method: The results are expressed as a percentage of cells with respect to the control.
The cellular viability was expressed as a percentage of control cells and calculated by the formula Ft/Fnt×100, where Ft=absorbance of treated neurones and Fnt=absorbance of non treated neurones.
The SH-SY5Y cells were routinely grown at 37° C. in a humidified incubator with 5% CO2 in Dulbecco's modified Eagle's medium supplemented with 10% foetal calf serum (FCS), glutamine 2 mM, penicillin […] and streptomycin 50 μg/mL.

SH-SY5Y cells [4] = experiment: Intracellular antioxidant activity: ROS formation evoked by t-BuOOH (DCFH-DA probe); assay type: cell-based, human; conditions: for % intracellular ROS: percentage increase of ROS by t-BuOOH, mean±SD of three tests; for effect on ROS formation, in words: 0.1-50 μM for LA and 7, 0.1-5 μM for 15
Method: Significant inhibiting effects were obtained with concentrations of 7 or 5 μM (p<0.01), 10 μM and 50 μM (for both p<0.001).
The results are expressed as the percentage increase of intracellular ROS determined by the treatment with tert-butyl hydroperoxide. Data are reported as the mean±SD (standard deviation) of three tests independent of one another (treated against not treated; *p<0.01, **p<0.001). ^btox=cytotoxicity.

[5] = molecular target: T2, AChE-induced Aβ40 aggregation (Homo sapiens, UniProt P22303)
[6] = molecular target: T2, AChE-induced Aβ40 aggregation; experiment: biochemical; conditions: for inhibition at 100 µM: read-out: % of inhibition ± SEM of AChE-induced Aβ40 aggregation
anti-NGF mice (AD11) = experiment: Cholinergic deficit of anti-NGF mice: ChAT immunohistochemistry, cholinergic neurones in the basal forebrain; conditions: i.p., 15 days, doses of Table 6
Method: Immunohistochemistry was carried out to show the number of cholinergic neurones in the basal forebrain. For this purpose, sections were incubated with the monoclonal antibody anticholine acetyltransferase (1:500, Chemicon International Inc., Temecula, Calif.).

[7] = BChE from human serum, mean of two independent measurements, each in duplicate, read-out: IC50 BChE
[8] = human recombinant AChE, mean of two independent measurements, each in duplicate, read-out: IC50 AChE

T1 sequence (P56817 46-501): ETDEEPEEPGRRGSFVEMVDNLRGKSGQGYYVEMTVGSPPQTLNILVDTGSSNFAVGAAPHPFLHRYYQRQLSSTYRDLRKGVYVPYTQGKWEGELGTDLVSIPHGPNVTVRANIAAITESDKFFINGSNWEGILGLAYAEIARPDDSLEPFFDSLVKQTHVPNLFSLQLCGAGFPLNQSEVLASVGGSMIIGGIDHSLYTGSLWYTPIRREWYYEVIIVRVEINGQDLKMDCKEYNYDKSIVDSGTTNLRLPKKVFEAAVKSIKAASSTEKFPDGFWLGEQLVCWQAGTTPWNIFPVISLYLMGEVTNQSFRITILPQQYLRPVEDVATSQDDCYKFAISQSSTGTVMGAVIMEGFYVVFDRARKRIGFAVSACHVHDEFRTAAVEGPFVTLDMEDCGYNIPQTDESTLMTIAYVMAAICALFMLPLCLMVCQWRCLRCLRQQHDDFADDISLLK
T2 sequence (P22303 32-614): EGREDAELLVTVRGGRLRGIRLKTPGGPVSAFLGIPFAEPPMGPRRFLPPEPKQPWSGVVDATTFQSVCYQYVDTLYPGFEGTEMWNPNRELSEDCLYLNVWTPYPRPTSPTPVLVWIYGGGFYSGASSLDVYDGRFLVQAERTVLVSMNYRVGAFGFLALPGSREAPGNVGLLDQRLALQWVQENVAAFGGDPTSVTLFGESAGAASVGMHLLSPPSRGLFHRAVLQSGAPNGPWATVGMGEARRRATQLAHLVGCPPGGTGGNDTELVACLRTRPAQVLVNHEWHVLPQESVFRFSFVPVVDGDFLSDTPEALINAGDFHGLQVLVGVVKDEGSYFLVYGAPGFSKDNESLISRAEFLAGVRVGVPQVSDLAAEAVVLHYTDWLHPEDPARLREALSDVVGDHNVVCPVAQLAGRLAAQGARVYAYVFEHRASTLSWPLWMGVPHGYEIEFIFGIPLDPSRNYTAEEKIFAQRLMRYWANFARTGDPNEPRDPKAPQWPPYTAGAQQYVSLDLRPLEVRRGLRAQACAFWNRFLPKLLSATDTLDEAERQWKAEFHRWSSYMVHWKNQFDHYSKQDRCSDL
Sequence of human recombinant acetylcholinesterase (AChE or HuAChE) (P22303 32-614): as above
Sequence of butyrylcholinesterase (BChE) from human serum (P06276 29-602): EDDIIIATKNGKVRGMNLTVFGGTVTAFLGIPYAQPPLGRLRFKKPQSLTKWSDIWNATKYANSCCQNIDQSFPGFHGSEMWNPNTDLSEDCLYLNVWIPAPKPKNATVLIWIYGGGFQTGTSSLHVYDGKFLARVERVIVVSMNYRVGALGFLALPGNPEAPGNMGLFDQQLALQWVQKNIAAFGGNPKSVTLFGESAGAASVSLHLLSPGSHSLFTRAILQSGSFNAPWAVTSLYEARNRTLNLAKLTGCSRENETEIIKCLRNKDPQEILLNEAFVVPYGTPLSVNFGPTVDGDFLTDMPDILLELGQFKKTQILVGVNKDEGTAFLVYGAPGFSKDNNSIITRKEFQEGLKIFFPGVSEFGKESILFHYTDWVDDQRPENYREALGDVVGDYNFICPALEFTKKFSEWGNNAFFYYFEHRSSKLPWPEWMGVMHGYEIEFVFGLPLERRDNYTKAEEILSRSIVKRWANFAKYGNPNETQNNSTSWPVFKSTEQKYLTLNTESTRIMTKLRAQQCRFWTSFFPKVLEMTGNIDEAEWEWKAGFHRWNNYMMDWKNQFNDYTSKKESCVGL
Sequence of human recombinant AChE (P22303 32-614): as the sequence (P22303 32-614) above

## COc1ccc2c3c1O[C@H]1C[C@@H](O)C=C[C@@]31CCN(C)C2 [Galantamine]
BACE1 (β-secretase)
  IC50: > 5000 nM

## O=C(CCCCC1CCSS1)NCCCNc1c2c(nc3cc(Cl)ccc13)CCCC2 (racemic) [Compound 7, 5-[1,2]dithiolan-3-yl-pentanoic acid [3-(6-chloro-1,2,3,4-tetrahydro-acridin-9-ylamino)-propyl]-amide]
[1]
  IC50: 0.253 nM
[2]; [7]
  IC50: 10.8 nM
Human recombinant AChE
  Ki: 0.155 ± 0.046 nM
  type of inhibition (Lineweaver-Burk): mixed type of competitive inhibition
SH-SY5Y cells [3]
  effect on cellular viability (MTT): did not lead to variations in cellular viability; also recorded: do not influence cellular vitality
SH-SY5Y cells [4]; 0.1 μM
  % intracellular ROS: 99.50 ± 3.54%
SH-SY5Y cells [4]; 0.5 μM
  % intracellular ROS: 99.67 ± 7.02%
SH-SY5Y cells [4]; 1 μM
  % intracellular ROS: 96.67 ± 8.02%
SH-SY5Y cells [4]; 5 μM
  % intracellular ROS: 82.50 ± 7.78%
SH-SY5Y cells [4]; 10 μM
  % intracellular ROS: tox^b
SH-SY5Y cells [4]; 50 μM
  % intracellular ROS: tox^b
SH-SY5Y cells [4]
  effect on ROS formation, in words: inhibiting effect in ROS formation which depended strongly on the concentration
SH-SY5Y cells [4]; SH-SY5Y, t-BuOOH
  inhibition of ROS formation: 64%
BACE1 (β-secretase); substrate 250 nM, enzyme 1 U/mL, 60 minutes, 37° C., read-out: IC50 (nM) on BACE
  IC50: 69.7 nM
[5]
  power versus other classic AChE inhibitors approved for AD (AChE-induced Aβ40 aggregation): significantly more powerful than other classic AChE inhibitors
  times less powerful than propidium (AChE-induced Aβ40 aggregation): 3
[6]
  IC50: 45000 ± 14600 nM
  inhibition at 100 µM: 61.8 ± 0.8%
anti-NGF mice (AD11)
  recovery of the cholinergic deficit (number of cholinergic neurones in the basal forebrain): did not allow the complete recovery of the cholinergic deficit

## O=C(CCCCC1CCSS1)NCCCCCCCNc1c2c(nc3ccccc13)CCCC2 (stereo not shown) [Compound 6, 5-[1,2]dithiolan-3-yl-pentanoic acid [7-(1,2,3,4-tetrahydro-acridin-9-ylamino)-heptyll]-amide]
[2]; [7]
  IC50: 8.58 nM

## O=C(CCCCC1CCSS1)NCCCNc1c2c(nc3ccccc13)CCCC2 (stereo not shown) [Compound 2, 5-[1,2]dithiolan-3-yl-pentanoic acid [3-(1,2,3,4-tetrahydro-acridin-9-ylamino)propyl]amide]
[1]; [8]
  IC50: 6.96 nM
[2]; [7]
  IC50: 12 nM

## COc1cccc(C(C)N(C)CCCNC(=O)CCCCC2CCSS2)c1 (stereo not shown) [Compound 20, 5-[1,2]dithiolan-3-yl-pentanoic acid (3-{[1-(3-methoxy-phenyl)-ethyl]-methyl-amino}-propyl)-amide]
[1]; [8]
  IC50: 74100 nM
[2]; [7]
  IC50: 398 nM
[6]
  inhibition at 100 µM: 15.6 ± 7.8%
anti-NGF mice (AD11)
  recovery of the cholinergic deficit (number of cholinergic neurones in the basal forebrain): did not allow the complete recovery of the cholinergic deficit

## NCCCNc1c2c(nc3cc(Cl)ccc13)CCCC2 [Compound 15, N^1-(6-chloro-1,2,3,4-tetrahydro-acridin-9-yl)-propane-1,3-diamine]
[1]; read-out: IC50 AChE
  IC50: 21.5 nM
SH-SY5Y cells [3]; 10 μM
  decrease of cellular viability: 88%
SH-SY5Y cells [3]; 50 μM
  decrease of cellular viability: 99%
SH-SY5Y cells [3]
  effect on cellular viability (MTT): has a neurotoxic effect
SH-SY5Y cells [4]; 0.1 μM
  % intracellular ROS: 88.75 ± 8.41%
SH-SY5Y cells [4]; 0.5 μM
  % intracellular ROS: 95.00 ± 5.20%
SH-SY5Y cells [4]; 1 μM
  % intracellular ROS: 77.00 ± 8.76%
SH-SY5Y cells [4]; 5 μM
  % intracellular ROS: 61.67 ± 9.02* %
SH-SY5Y cells [4]; 10 μM
  % intracellular ROS: 51.25 ± 9.21** %
SH-SY5Y cells [4]; 50 μM
  % intracellular ROS: 30.50 ± 9.04** %
SH-SY5Y cells [4]
  effect on ROS formation, in words: did not show any difference as regards ROS formation
[6]
  inhibition at 100 µM: 25 ± 5%

## O=C(CCCCC1CCSS1)NCCCCCCNc1c2c(nc3ccccc13)CCCC2 (stereo not shown) [Compound 5, 5-[1,2]dithiolan-3-yl-pentanoic acid [6-(1,2,3,4-tetrahydro-acridin-9-ylamino)-hexyl]-amide]
[1]; [8]
  IC50: 30.1 nM
[2]; [7]
  IC50: 3.24 nM

## Nc1c2c(nc3cc(Cl)ccc13)CC(CNC(=O)CCCCC1CCSS1)CC2 (stereo not shown) [Compound 8, 5-[1,2]dithiolan-3-yl-pentanoic acid (9-Amino-6-chloro-1,2,3,4-tetrahydro-acridin-3-ylmethyl)-amide]
[1]; [8]
  IC50: 232 nM

## O=C(O)CCCCC1CCSS1 (stereo not shown) [LA, lipoic acid, reference compound]
[5]; compound 100 μM
  % of inhibition ± SEM of AChE-induced Aβ40 aggregation: <5%
anti-NGF mice (AD11)
  recovery of the cholinergic deficit (number of cholinergic neurones in the basal forebrain): did not allow the complete recovery of the cholinergic deficit

## O=C(CCCCC1CCSS1)NCCCCCNc1c2c(nc3ccccc13)CCCC2 (stereo not shown) [Compound 4, 5-[1,2]dithiolan-3-yl-pentanoic acid [5-(1,2,3,4-tetrahydro-acridin-9-ylamino)-pentyl]-amide]
[1]; [8]
  IC50: 38.4 nM
[2]; read-out: IC50 BChE
  IC50: 1.48 nM

## CC(c1cccc(OCCCNC(=O)CCCCC2CCSS2)c1)N(C)C (stereo not shown) [Compound 19, 5-[1,2]dithiolan-3-yl-pentanoic acid {3-[3-(1-dimethylamino-ethyl)-phenoxy]-propyl}-amide]
[1]; [8]
  IC50: 25200 nM
[2]
  IC50: 82400 nM
[6]
  inhibition at 100 µM: 9 ± 6.6%
anti-NGF mice (AD11)
  recovery of the cholinergic deficit (number of cholinergic neurones in the basal forebrain): did not allow the complete recovery of the cholinergic deficit

## Nc1c2c(nc3ccccc13)CCCC2 [Tacrine, reference compound]
BACE1 (β-secretase)
  IC50: > 4000 nM
anti-NGF mice (AD11)
  recovery of the cholinergic deficit (number of cholinergic neurones in the basal forebrain): did not allow the complete recovery of the cholinergic deficit

## COc1cc2nc(Cl)nc(NCCCNC(=O)CCCCC3CCSS3)c2cc1OC (stereo not shown) [Compound 23, 5-[1,2]dithiolan-3-yl-pentanoic acid [3-(2-chloro-6,7-dimethoxy-chinazoline-4-ylamino)-propyl]-amide]
[1]
  IC50: 192000 nM
[6]
  inhibition at 100 µM: 32.1 ± 3.9%

## O=C(CCCC[C@@H]1CCSS1)NCCCNc1c2c(nc3cc(Cl)ccc13)CCCC2 [Compound 24]
[1]
  IC50: 0.23 nM
[5]
  power versus other classic AChE inhibitors approved for AD (AChE-induced Aβ40 aggregation): significantly more powerful than other classic AChE inhibitors
[6]
  inhibition at 100 µM: 68 ± 3%

## CCN(CCCCCCNC(=O)CCCCC1CCSS1)Cc1ccccc1OC (stereo not shown) [Compound 18, 5-[1,2]dithiolan-3-yl-pentanoic acid {6-[Ethyl-(2-methoxy-benzyl)-amino]-hexyl}-amide]
[1]; [8]
  IC50: 256 nM
[2]; [7]
  IC50: 2490 nM
[6]
  inhibition at 100 µM: 16.8 ± 2.2%
anti-NGF mice (AD11)
  recovery of the cholinergic deficit (number of cholinergic neurones in the basal forebrain): significant recovery

## CCN(C)C(=O)Oc1cccc([C@H](C)N(C)C)c1 [Rivastigmine]
BACE1 (β-secretase)
  IC50: > 3000 nM

## O=C(CCCCC1CCSS1)NCCCCNc1c2c(nc3ccccc13)CCCC2 (stereo not shown) [Compound 3, 5-[1,2]dithiolan-3-yl-pentanoic acid [4-(1,2,3,4-tetrahydro-acridin-9-ylamino)-butyl]amide]
[1]; [8]
  IC50: 35.2 nM
[2]; read-out: IC50 BChE
  IC50: 5.04 nM

## CC[C@H](C)[C@H](NC(=O)[C@H](CCC(=O)O)NC(=O)[C@H](CCC(=O)O)NC(=O)[C@@H](NC(=O)[C@@H](N)CCCCN)[C@@H](C)O)C(=O)N[C@@H](CO)C(=O)N[C@@H](CCC(=O)O)C(=O)N[C@H](C(=O)N[C@@H](CC(N)=O)C(=O)N[C@@H](CC(C)C)[C@@H](O)CC(=O)N[C@H](C(=O)N[C@@H](C)C(=O)N[C@@H](CCC(=O)O)C(=O)N[C@@H](Cc1ccccc1)C(=O)O)C(C)C)C(C)C [peptide derivative of statin] (H-KTEEISEVN[Sta]VAEF-OH)
BACE1 (β-secretase)
  IC50: 18 nM

## O=C(CCCCC1CCSS1)NCCNc1c2c(nc3ccccc13)CCCC2 (stereo not shown) [Compound 1, 5-[1,2]dithiolan-3-yl-pentanoic acid [2-(1,2,3,4-tetrahydro-acridin-9-ylamino)-ethyl]amide]
[1]; [8]
  IC50: 97 nM
[2]; [7]
  IC50: 47.5 nM

## O=C(CCCCc1cccs1)NCCCNc1c2c(nc3cc(Cl)ccc13)CCCC2 [Compound 21, 5-thiofen-2-yl-pentanoic acid [3-(6-chloro-1,2,3,4-tetrahydro-acridin-9-ylamino)-propyl]-amide]
[1]
  IC50: 2.66 nM
[2]; [7]
  IC50: 30.6 nM
[6]
  inhibition at 100 µM: 24.1 ± 5.7%
